From patent US10344053B2, “Inhibitors for inhibiting tumor metastasis” (Forschungsverbund Berlin e.V., priority 2014, dated 2019) come the findings set out here.

Series [1] is described as follows: in vitro. The class given is in vitro ADME. The conditions noted are these: for Plasma stability, % remaining (Tlast 240 min): 4 h; for half-life: plasma. The protocol: An in vitro assay was performed in the plasma of mice and humans.
Series [2] in a line: in vitro. The class given is in vitro ADME. To be noted: mouse, microsomes.
The nature of series [3]: in vitro. The series is classed as in vitro ADME. The conditions noted are these: human, microsomes.
Series [4] has as its target T1, VASP-EVH1 (Homo sapiens, UniProt P50552).
T1 construct: VASP-EVH-1, EnaH-EVH-1 and EVL-EVH-1 domain
Description: Binding affinity by FT, VASP-EVH1. The protocol:
(§1) The substitution of the diproline units of the FPPPP motif with the Fmoc-ProMs was carried out. The binding affinities of the ligands to the domain were subsequently determined by means of isothermal titration calorimetry (ITC) on the basis of the dissociation constant (Kd) or the free enthalpy (ΔG) of the protein-ligand complexes. The results of the measurements were additionally checked by means of fluorescence titration (FT). A stronger binding of the respective ligand is expressed by a smaller value for Kd or a more negative value for ΔG. The correlation between the dissociation constant (Kd) and the free enthalpy (ΔG) is illustrated with the following equations: […]
(§2) A further analysis to test the dissociation constant (Kd) of a variety of other compounds was carried out by means of FT and ITC.

The target of series [5] is T1, VASP-EVH1. Briefly: Binding affinity by ITC, VASP-EVH1. The protocol: as §1, §2
Series [6] addresses T2, EnaH-EVH1 (Homo sapiens, UniProt Q8N8S7).
T2 construct: VASP-EVH-1, EnaH-EVH-1 and EVL-EVH-1 domain
Briefly: Binding affinity by FT, EnaH-EVH1. The protocol: as §1, §2

Series [7] concerns the target T2, EnaH-EVH1. Briefly: Binding affinity by ITC, EnaH-EVH1. The protocol:
as §1, §2
On the technique in general: In ITC the heat of successive injections is recorded.

Series [8] addresses T3, EVL-EVH1 (Homo sapiens, UniProt Q9UI08).
T3 construct: VASP-EVH-1, EnaH-EVH-1 and EVL-EVH-1 domain
Description: Binding affinity by FT, EVL-EVH1. The protocol: as §1, §2

Series [9] concerns the target T3, EVL-EVH1. Briefly: Binding affinity by ITC, EVL-EVH1. The protocol:
as §1, §2

Series [10] relates to ena/VASP-EVH1. Description: Inhibition of ena/VASP-EVH1-mediated protein-protein interactions, affinity for the target (statements in words). The class given is binding. The conditions noted are these: result in words.
Series [11] has as its target EVH-1 domain. Description: Binding affinity to EVH-1 domain by isothermal titration calorimetry (ITC), Table 1. The conditions noted are these: for Kd / ITC ΔG: ITC; for Kd: EVH-1 domain; for ITC ΔG: free enthalpy of protein-ligand complex. The protocol:
as §1

For series [12], the target named is EVH-1 domain. Description: Binding affinity to EVH-1 domain by fluorescence titration (FT), Table 1. To be noted: for Kd: EVH-1 domain; for FT ΔG: free enthalpy of protein-ligand complex. The protocol: as §1
In series [13] the test system is target cells. Briefly: Cell experiments: absorption of the compound by target cells. The conditions noted are these: ester derivative versus carboxylic acid ligand; result in words. The series is classed as cell-based. From the text:
Within the framework of cell experiments it could further be shown that, by replacing the carboxylic acid ligand with the ester derivative (NBD-Phe(2-CI)-[ProM-2][ProM-1]-OEt), the ability of the compound to be absorbed by the target cells could be improved. The absorption of the substance in the cell could thus be increased, without loss of the advantageous binding properties.

The target in series [14] is T1, VASP-EVH1. Description: Binding data to VASP-EVH1 (text, method not stated). To be noted: text b160.
Series [15] concerns MDA MB 231 breast cancer cells. Briefly: Matrigel migration assay (chemotaxis and motility). The class given is cell-based. To be noted: relative to the baseline value (DMSO/no FBS gradient). The protocol: FIG. 1: Inhibition of the chemotaxis and motility of highly invasive tumor cells in a matrigel migration assay.
Cell culture experiments were performed with MDA MB 231 breast cancer cells.
Example Compound III inhibits the migration of MDA MB 231 breast cancer cells by more than 90% relative to the baseline value (DMSO/no FBS gradient) (FIGS. 1 A and B).

The subject of series [16] is cells. Description: Cellular toxicity. The class given is cell-based. To be noted: result in words. From the text: FIG. 2: Cellular toxicity of the compound in accordance with Formula III.
The low or absent cellular toxicity likewise constitutes a surprising and advantageous property of the compounds. The inventive compounds bind to the target receptor not only with very low dissociation constants, but also with high specificity. For medical use of the compounds this is to be considered as an advantage.

Series [17] is described as follows: in vitro. The conditions noted are these: mouse, mouse plasma.
A short description of series [18]: in vitro. To be noted: human, human plasma.

T2 sequence (Q8N8S7 1-111 limits assumed): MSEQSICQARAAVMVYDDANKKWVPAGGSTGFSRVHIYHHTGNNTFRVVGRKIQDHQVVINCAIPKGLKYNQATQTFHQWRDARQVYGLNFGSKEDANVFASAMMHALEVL
T1 sequence (P50552 2-113 limits assumed): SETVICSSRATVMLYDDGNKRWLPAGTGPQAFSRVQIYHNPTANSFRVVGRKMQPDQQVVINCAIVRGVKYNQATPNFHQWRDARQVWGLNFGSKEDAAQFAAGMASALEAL
T3 sequence (Q9UI08 1-112 limits assumed): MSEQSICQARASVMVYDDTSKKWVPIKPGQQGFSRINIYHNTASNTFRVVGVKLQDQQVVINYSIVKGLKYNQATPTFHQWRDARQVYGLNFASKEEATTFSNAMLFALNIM

In the case of “Ac-Phe(2-CI)-[ProM-2][ProM-1]-NH2 [Compound 4C]”, the “Plasma stability, % remaining (Tlast 240 min)” value turned out to be 80.3% in series [1] (human) and 94.7% in series [1] (mouse). The “Liver microsomal stability Clint” value in series [2] is reported as 34.0 μl/min/mg protein; in series [3], 11.6 μl/min/mg protein. Further, the “Liver microsomal stability t½” value in series [2] and in series [3] was more than 60 min each time.

As a reminder, the Kd is the equilibrium constant for the complex coming apart. A high value points to lower affinity. As to `CCOC(=O)[C@@H]1C[C@@H](CC)[C@@H]2C=C[C@H]3CCN(C(=O)[C@@H]4CC[C@H]5C=C[C@]6(CCCN6C(=O)[C@H](Cc6ccccc6Cl)NC(C)=O)C(=O)N54)[C@@H]3C(=O)N12` [Ac[2-Cl—F][ProM-2][ProM-13]-OEt, Ac-Phe(2-CI)-[ProM-2][ProM-13]-OEt], the Kd came to 0.4 µM in [4]; 0.49 µM in series [5]; 180 nM in [6]; 0.31 µM in series [7]; 130 nM in [8]; 0.28 µM in series [9]. In addition, in series [10], the “affinity for the target” value is “particularly strong affinity”.

Ac-Phe(2-Cl)-[ProM-2][ProM-4]-OH: in series [11], binding was characterised by a dissociation constant (Kd) of 9.7 µM and the “ITC ΔG” value was -28.6 kJ/mol. Besides, in [12], the affinity, expressed as Kd, was 1600 nM and the “FT ΔG” value is -33.1 kJ/mol.

“NBD-Phe(2-CI)-[ProM-2]-[ProM-1]-OEt [NBD-Phe(2-CI)-[ProM-2][ProM-1]-OEt]”: in series [13], the “ability to be absorbed by the target cells” value is listed as “improved”.

In the case of Ac-Phe(2-Cl)-PPPP-OH, in series [11], the Kd turned out to be 18 µM and the “ITC ΔG” value was -27.0 kJ/mol. Further, in series [12], the Kd was 13000 nM and the “FT ΔG” value was -27.8 kJ/mol.

For `CC(=O)N[C@@H](CO)C(=O)N[C@@H](Cc1ccccc1)C(=O)N[C@@H](CCC(=O)O)C(=O)N[C@@H](Cc1ccccc1)C(=O)N1CCC[C@H]1C(=O)N1CCC[C@H]1C(=O)N1CCC[C@H]1C(=O)N1CCC[C@H]1C(=O)N[C@H](C(=O)N[C@@H](CCC(=O)O)C(=O)N[C@@H](CC(=O)O)C(=O)N[C@@H](CCC(=O)O)C(=O)N[C@@H](CC(C)C)C(N)=O)[C@@H](C)O` [reference compound], the Kd in series [11] came out at 20 µM.

`CC(=O)NC(Cc1ccccc1Cl)C(=O)N1CCCC12C=CC1CCC(C(=O)N3CCC4C=CC5CCC(C(=O)O)N5C(=O)C43)N1C2=O` (stereo not shown) [Ac-Phe(2-Cl)-[ProM-2][ProM-1]-OH, Ac-Phe(2-CI)-[ProM-2]-[ProM-1]-OH]: in series [11], the dissociation constant Kd is 3.8 µM and the “ITC ΔG” value was -31.0 kJ/mol. In addition, in series [12], the Kd was found to be 2700 nM and the “FT ΔG” value is -31.8 kJ/mol. Besides, the “improvement of the binding affinity by a factor (FT)” value in [12] (in comparison to Ac-Phe(2-CI)-PP[ProM-1]-OH) was 1.2.

In turn, `CCOC(=O)[C@@H]1C[C@@H](C)[C@@H]2C=C[C@H]3CCN(C(=O)[C@@H]4CC[C@H]5C=C[C@]6(CCCN6C(=O)[C@H](Cc6ccccc6Cl)NC(C)=O)C(=O)N54)[C@@H]3C(=O)N12` [Compound III] yielded a Kd in series [14] of 280 nM. In series [10], the “inhibition of ena/VASP-EVH1-mediated protein-protein interactions” value was “selectively inhibit”. In [15], the “inhibition of migration of MDA MB 231 breast cancer cells” value was “more than 90%”. Moreover, the cellular toxicity result in series [16] is “non-toxic to cells”.

As for Ac-Phe(2-Cl)-PP[ProM-9]-OH, in series [11], the dissociation constant Kd is 8 µM and the “ITC ΔG” value is -29.1 kJ/mol. Also, in [12], the affinity, expressed as Kd, was 400 nM and the “FT ΔG” value is -36.7 kJ/mol.

Turning to `CC(=O)NC(Cc1ccccc1Cl)C(=O)N1CCCC12C=CC1CCC(C(=O)N3CCC4C=CC5C(C)CC(C(=O)O)N5C(=O)C43)N1C2=O` (stereo not shown) [Ac-Phe(2-Cl)-[ProM-2][ProM-9]-OH], in series [11], binding was characterised by a dissociation constant (Kd) of 0.69 µM and the “ITC ΔG” value was -35.2 kJ/mol. Moreover, in series [11] (determined by means of ITC, overall progression from the wild-type ligand), the “free enthalpy (Gibbs free energy) gain ΔΔG over the ligand optimization” value is -15.9 kJ/mol. Moreover, in series [12], the affinity, expressed as Kd, was 280 nM and the “FT ΔG” value was -37.4 kJ/mol.

What is called half-life is the time needed for the level to fall by half in the phase considered. A lower half-life goes with rapid decline. The term microsomal CLint denotes a measure of how fast metabolising enzymes remove a compound, apart from limits set by blood flow. Read a low microsomal CLint as greater metabolic stability. As a reminder, the fraction unbound is the share of the substance not bound to proteins or other matrix. A lower fraction unbound goes with extensive binding. Regarding `CCOC(=O)C1CCC2C=CC3CCN(C(=O)C4CCC5C=CC6(CCCN6C(=O)C(Cc6ccccc6Cl)NC(C)=O)C(=O)N54)C3C(=O)N21` (stereo not shown) [Compound 4D, Ac-Phe(2-CI)-[ProM-2][ProM-1]-OEt], the dissociation constant Kd in series [4] was 6.2 µM; in series [5] it was 9.4 µM; in series [6] it was 4100 nM; in [7] it was 7.8 µM; in series [8], 4100 nM; in series [9], 5.8 µM. Also, the entries for the “Plasma stability, % remaining (Tlast 240 min)” value in [1] (human) and in series [1] (mouse) were 95.5% and 87.4%, respectively. Further, the half-life is more than 240 min in series [1] (human), more than 240 min in [1] (mouse), more than 60 min in series [2] and more than 60 min in [3]. Besides, the microsomal CLint in [2] turned out to be 35.6 µL/min/mg; in series [3] it was 26.4 µL/min/mg. For the same compound, the fraction unbound is 0.981 in series [17] and 0.924 in [18].

With Ac-Phe(2-Cl)-PP[ProM-1]-OH, in [11], the equilibrium dissociation constant (Kd) was 14.1 µM and the “ITC ΔG” value was -27.7 kJ/mol. For the same compound, in series [12], binding was characterised by a dissociation constant (Kd) of 3200 nM and the “FT ΔG” value is -31.4 kJ/mol.
